Literature values as cited in patent US9326976B2, “Carbamate derivatives” (CHIESI FARMACEUTICI S.P.A., priority 2014, dated 2016).

System: COPD patients
[1] = patients with severe disease, frequent exacerbations and mucus hypersecretion

O=C(Nc1c(Cl)cncc1Cl)c1ccc(OC(F)F)c(OCC2CC2)c1 [roflumilast]
reduction of the numbers of neutrophils in sputum (COPD patients, oral, given over 4 weeks): 36%
improvement of FEV 1 [1]: approximately 50 mL
reduction of exacerbation [1]: about 15%
